Molecular target in one experiment: not listed separately
The experiment in a line: Inhibition of rat intestinal alpha-glucosidase using p-nitrophenyl-alpha-D-glucopyranoside assessed as release of p-nitrophenol after 5 mins by spectrophotometric analysis.
Turning to `Cc1ccc2oc(=O)c(C(c3cccc([N+](=O)[O-])c3)c3c(O)c4cc(C)ccc4oc3=O)c(O)c2c1`, the half-inhibitory concentration (IC50) worked out at 68 µM.
As to `O=c1oc2ccc(Cl)cc2c(O)c1C(c1cccc(O)c1)c1c(O)c2cc(Cl)ccc2oc1=O`, the half-maximal inhibitory concentration (IC50) turned out to be 84.1 µM.
Same read-out and setting: the same measure for `O=c1oc2ccc(Cl)cc2c(O)c1C(c1ccccc1[N+](=O)[O-])c1c(O)c2cc(Cl)ccc2oc1=O`: 80.9 µM; for `CSc1ccc(C(c2c(O)c3cc(C)ccc3oc2=O)c2c(O)c3cc(C)ccc3oc2=O)cc1`: 37.4 µM; for `C[C@H]1O[C@H](O[C@H]2[C@H](O)[C@@H](O)[C@@H](O[C@H]3[C@H](O)[C@@H](O)C(O)O[C@@H]3CO)O[C@@H]2CO)[C@H](O)[C@@H](O)[C@@H]1N[C@H]1C=C(CO)[C@@H](O)[C@H](O)[C@H]1O` (stereo partly specified) [ACARBOSE]: 906 µM.
The same measure, in the same setting: the same measure for `CCOc1cc(C(c2c(O)c3cc(C)ccc3oc2=O)c2c(O)c3cc(C)ccc3oc2=O)ccc1O`: 222 µM; for `COc1ccc(C(c2c(O)c3cc(Cl)ccc3oc2=O)c2c(O)c3cc(Cl)ccc3oc2=O)cc1OC`: 91.4 µM; for `COc1ccc(C(c2c(O)c3cc(C)ccc3oc2=O)c2c(O)c3cc(C)ccc3oc2=O)cc1`: 107 µM.
As to `O=c1oc2ccc(Cl)cc2c(O)c1C(c1ccc(Cl)cc1Cl)c1c(O)c2cc(Cl)ccc2oc1=O`, the half-inhibitory concentration (IC50) is 16.5 µM.
Still for that read-out and setting: the same measure for `COc1ccc(C(c2c(O)c3cc(Cl)ccc3oc2=O)c2c(O)c3cc(Cl)ccc3oc2=O)cc1`: 75.7 µM; for `COc1ccc(C(c2c(O)c3cc(Cl)ccc3oc2=O)c2c(O)c3cc(Cl)ccc3oc2=O)cc1O`: 83.6 µM.
For the compound `COc1cc(C(c2c(O)c3cc(Cl)ccc3oc2=O)c2c(O)c3cc(Cl)ccc3oc2=O)cc(OC)c1OC`, the half-inhibitory concentration (IC50) came out at 128 µM.
Still for that read-out and setting: the same measure for `Cc1ccc2oc(=O)c(C(c3ccccc3[N+](=O)[O-])c3c(O)c4cc(C)ccc4oc3=O)c(O)c2c1`: 129 µM; for `CCOc1cc(C(c2c(O)c3cc(Cl)ccc3oc2=O)c2c(O)c3cc(Cl)ccc3oc2=O)ccc1O`: 57.1 µM.
On the same count and under the same terms, the same measure for `Cc1ccc2oc(=O)c(C(c3cccc(O)c3)c3c(O)c4cc(C)ccc4oc3=O)c(O)c2c1`: 52.6 µM; for `Cc1ccc2oc(=O)c(C(c3ccc([N+](=O)[O-])cc3)c3c(O)c4cc(C)ccc4oc3=O)c(O)c2c1`: 79.2 µM.
As for `COc1cc(C(c2c(O)c3cc(Cl)ccc3oc2=O)c2c(O)c3cc(Cl)ccc3oc2=O)ccc1O`, the IC50 was 113 µM.
Still for that read-out and setting: next, `COc1cc(C(c2c(O)c3cc(C)ccc3oc2=O)c2c(O)c3cc(C)ccc3oc2=O)cc(OC)c1OC`: 386 µM.
Still for that read-out and setting: next, `O=c1oc2ccc(Cl)cc2c(O)c1C(c1cccc([N+](=O)[O-])c1)c1c(O)c2cc(Cl)ccc2oc1=O`: 27.1 µM.

The species entered for another experiment is Rattus norvegicus. The experiment in a line: Ratio of acarbose IC50 to compound IC50 for rat intestinal alpha-glucosidase using p-nitrophenyl-alpha-D-glucopyranoside assessed as release of p-nitrophenol after 5 mins by spectrophotometric analysis.
On to `O=c1oc2ccc(Cl)cc2c(O)c1C(c1ccc(Cl)cc1Cl)c1c(O)c2cc(Cl)ccc2oc1=O`, for which the Ratio IC50 was found to be 54.
Still for that read-out and setting: the same measure for `O=c1oc2ccc(Cl)cc2c(O)c1C(c1cccc([N+](=O)[O-])c1)c1c(O)c2cc(Cl)ccc2oc1=O`: 33.

These data come from ChEMBL document CHEMBL3259527, “Synthesis and molecular docking studies of potent α-glucosidase inhibitors based on biscoumarin skeleton” (Eur J Med Chem, 2014).
